Data published in patent publication US20070004653A1, “Stable lyophilized anthracycline glycosides” (priority 2005, published 2007).

Legend:
[1] = Stability tests of stabilized Idarubicin HCl, 1% w/v aqueous solution with NH4OAc or NH4OAc + AcOH; type: physicochemical
Experimental: Starting product was idarubicin hydrochloride, 1% w/v aqueous solution, the analysis of which is shown in the data reported at t=0. 3% mol of NH4OAc with respect to idarubicin hydrochloride was added to the solution at t=0 and the solution was incubated at 4° C. for the indicated time.
Starting product was idarubicin hydrochloride, 1% w/v aqueous solution, the analysis of which is shown in the data reported at t=0. 3% mol of NH4OAc with respect to idarubicin hydrochloride was added to the solution at t=0 and the solution was incubated at 20° C. for the indicated time.
Starting product was idarubicin hydrochloride, 1% w/v aqueous solution, the analysis of which is shown in the data reported at t=0. 1% mol of NH4OAc with respect to idarubicin hydrochloride was added to the solution at t=0 and the solution was incubated at 4° C. for the indicated time.
Starting product was idarubicin hydrochloride, 1% w/v aqueous solution, the analysis of which is shown in the data reported at t=0. 1% mol of NH4OAc with respect to idarubicin hydrochloride was added to the solution at t=0 and the solution was incubated at 20° C. for the indicated time.
Starting product was idarubicin hydrochloride, 1% w/v aqueous solution, the analysis of which is shown in the data reported at t=0. 0.5% mol of NH4OAc and 0.5% mol of AcOH with respect to idarubicin hydrochloride were added to the solution at t=0 and the solution was incubated at 4° C. for the indicated time.
Starting product was idarubicin hydrochloride, 1% w/v aqueous solution, the analysis of which is shown in the data reported at t=0. 0.5% mol of NH4OAc and 0.5% mol of AcOH with respect to idarubicin hydrochloride were added to the solution at t=0 and the solution was incubated at 20° C. for the indicated time as shown in table 30.
Starting product was idarubicin hydrochloride, 1% w/v aqueous solution, the analysis of which is shown in the data reported at t=0. 1.5% mol of NH4OAc and 1.5% mol of AcOH with respect to idarubicin hydrochloride were added to the solution at t=0 and the solution was incubated at 4° C. for the indicated time.
Starting product was idarubicin hydrochloride, 1% w/v aqueous solution, the analysis of which is shown in the data reported at t=0. 1.5% mol of NH4OAc and 1.5% mol of AcOH with respect to idarubicin hydrochloride were added to the solution at t=0 and the solution was incubated at 20° C. for the indicated time.

[2] = Preparation of stable lyophilized anthracycline glycoside hydrochlorides: aglycone and dimer in the lyophilized product; type: physicochemical; conditions: frozen and lyophilized
Experimental: Idarubicin hydrochloride (500 mg) was dissolved in water (50 ml) and acetic acid and ammonium acetate (both 1.5% molar amount with respect to the molar amount of idarubicin hydrochloride) were added. The solution was frozen and lyophilized.
Idarubicin hydrochloride (500 mg) was dissolved in water (50 ml) and acetic acid and ammonium acetate (both 1.5% molar amount with respect to the molar amount of idarubicin hydrochloride) were added. Charcoal was then added (100 g) and the solution was stirred for two hours. After that, the suspension was filtered through 0.4 micron membrane and then the solution was frozen and lyophilized.
Doxorubicin hydrochloride (500 mg) was dissolved in water (20 ml) and the pH corrected to 3.5 with acetic acid at room temperature. The solution was then warmed to 60° C. for 2 hours and then ammonium acetate (1.5% molar amount with respect to the molar amount of doxorubicin hydrochloride) was added. Then the solution was quickly frozen and lyophilized.
Epirubicin hydrochloride (1550 mg) was dissolved in water (100 ml) and the pH corrected to 3.2-3.8 with hydrochloric acid at room temperature. The solution was then warmed to 60° C.-65° C. for 1 hours and then the solution was cooled to 50-60° C. At the same time, the pH was corrected to 4.5-5.0 with sodium hydroxide. Then the solution was quickly frozen and lyophilized.
Idarubicin hydrochloride (5.0 g) was dissolved in water (500 ml). Then 58 microlitres of AMBERLITE® IRA-67 (1.6M) acetate (meaning 1.0% molar amount with respect to the molar amount of idarubicin hydrochloride) and 4.5 mg of acetic acid (meaning 0.8% molar amount with respect to the molar amount of idarubicin hydrochloride) were added. The suspension was slurried for two hours, then filtered, frozen and lyophilized.
Doxorubicin hydrochloride (5.0 g) was dissolved in water (200 ml) and the pH corrected to 4.6-4.8 with IN hydrochloric acid at room temperature. Then 80 microlitres of AMBERLITE® IRA-67 (1.6M) acetate (meaning 1.5% molar amount with respect to the molar amount of doxorubicin hydrochloride) was added. The solution was then filtered, frozen and lyophilized.
Epirubicin hydrochloride (1550 mg) was dissolved in water (100 ml) and the pH corrected to 3.2-3.8 with hydrochloric acid at room temperature. The solution was warmed to 60° C.-65° C. for 1 hour and then the solution was cooled to 50-60° C. At the same time, the pH was corrected to 4.5-5.0 with AMBERLITE® IRA-67 free base. Then the solution was quickly filtered, frozen, and lyophilized.

[3] = NH4OAc 0.5% mol + AcOH 0.5% mol, pH 5.08, 4° C., 25 hr
[4] = NH4OAc 0.5% mol + AcOH 0.5% mol, pH 5.08, 4° C., 95 hr
[5] = NH4OAc 0.5% mol + AcOH 0.5% mol, pH 5.08, 20° C., 19 hr
[6] = NH4OAc 0.5% mol + AcOH 0.5% mol, pH 5.08, 20° C., 90 hr
[7] = NH4OAc 1% mol, pH 5.92, 4° C., 24 hr
[8] = NH4OAc 1% mol, pH 5.92, 20° C., 18 hr
[9] = NH4OAc 1% mol, pH 5.92, 20° C., 313 hr
[10] = NH4OAc 1.5% mol + AcOH 1.5% mol, pH 4.94, 4° C., 314 hr
[11] = NH4OAc 1.5% mol + AcOH 1.5% mol, pH 4.94, 20° C., 21 hr
[12] = NH4OAc 1.5% mol + AcOH 1.5% mol, pH 4.94, 20° C., 68 hr
[13] = NH4OAc 1.5% mol + AcOH 1.5% mol, pH 4.94, 20° C., 139 hr
[14] = NH4OAc 1.5% mol + AcOH 1.5% mol, pH 4.94, 20° C., 315 hr
[15] = NH4OAc 3% mol, pH 5.94, 4° C., 30 hr
[16] = NH4OAc 3% mol, pH 5.94, 4° C., 131 hr
[17] = NH4OAc 3% mol, pH 5.94, 20° C., 26 hr
[18] = NH4OAc 3% mol, pH 5.94, 20° C., 130 hr

Question: For `CC(=O)[C@]1(O)Cc2c(O)c3c(c(O)c2[C@@H](O[C@H]2C[C@@H](N)[C@H](O)C(C)O2)C1)C(=O)c1ccccc1C3=O.Cl` (stereo partly drawn) [Idarubicin HCl, Idarubicin hydrochloride], which aglycone [1, 3] is on record?
Answer: The aglycone was 0.59%.

Question: What about the bis-anhydro [1, 3] of the same compound?
Answer: Its bis-anhydro is 0.04%.

Question: And the aglycone [1, 4]?
Answer: The aglycone was 0.59%.

Question: What about the bis-anhydro [1, 4] of the same compound?
Answer: The bis-anhydro was 0.05%.

Question: And the aglycone ([1]; NH4OAc 0.5% mol + AcOH 0.5% mol, pH 5.08, 4° C., t = 0)?
Answer: The aglycone was 0.59%.

Question: And the aglycone [1, 5]?
Answer: The aglycone was 0.59%.

Question: And the bis-anhydro [1, 5]?
Answer: The bis-anhydro was 0.07%.

Question: And the aglycone [1, 6]?
Answer: The aglycone was 0.59%.

Question: What about the bis-anhydro [1, 6] of the same compound?
Answer: The bis-anhydro was 0.18%.

Question: What about the aglycone ([1]; NH4OAc 0.5% mol + AcOH 0.5% mol, pH 5.08, 20° C., t = 0) of the same compound?
Answer: The aglycone was 0.59%.

Question: And the “% aglycone” value [1, 7]?
Answer: The value was 0.59%.

Question: What about the “% bis-anhydro” value [1, 7] of the same compound?
Answer: The value was 0.05%.

Question: And the “% aglycone” value ([1]; NH4OAc 1% mol, pH 5.92, 4° C., t = 0)?
Answer: Its value is 0.59%.

Question: And the “% aglycone” value [1, 8]?
Answer: Its value is 0.59%.

Question: And the “% bis-anhydro” value [1, 8]?
Answer: Its value is 0.20%.

Question: What about the “% aglycone” value [1, 9] of the same compound?
Answer: Its value is 0.60%.

Question: What about the “% bis-anhydro” value [1, 9] of the same compound?
Answer: Its value is 4.46%.

Question: What about the “% aglycone” value ([1]; NH4OAc 1% mol, pH 5.92, 20° C., t = 0) of the same compound?
Answer: The value was 0.59%.

Question: What about the aglycone ([1]; NH4OAc 1.5% mol + AcOH 1.5% mol, pH 4.94, 4° C., 26 hr) of the same compound?
Answer: The aglycone was 0.59%.

Question: And the aglycone ([1]; NH4OAc 1.5% mol + AcOH 1.5% mol, pH 4.94, 4° C., 97 hr)?
Answer: The aglycone was 0.59%.

Question: What about the aglycone [1, 10] of the same compound?
Answer: Its aglycone is 0.59%.

Question: And the bis-anhydro [1, 10]?
Answer: The bis-anhydro was 0.06%.

Question: What about the aglycone ([1]; NH4OAc 1.5% mol + AcOH 1.5% mol, pH 4.94, 4° C., t = 0) of the same compound?
Answer: Its aglycone is 0.59%.

Question: And the aglycone [1, 11]?
Answer: The aglycone was 0.59%.

Question: What about the bis-anhydro [1, 11] of the same compound?
Answer: The bis-anhydro was 0.06%.

Question: And the aglycone [1, 12]?
Answer: Its aglycone is 0.59%.

Question: What about the bis-anhydro [1, 12] of the same compound?
Answer: The bis-anhydro was 0.16%.

Question: And the aglycone [1, 13]?
Answer: The aglycone was 0.59%.

Question: What about the bis-anhydro [1, 13] of the same compound?
Answer: Its bis-anhydro is 0.75%.

Question: What about the aglycone [1, 14] of the same compound?
Answer: Its aglycone is 0.6%.

Question: And the bis-anhydro [1, 14]?
Answer: Its bis-anhydro is 6.21%.

Question: What about the aglycone ([1]; NH4OAc 1.5% mol + AcOH 1.5% mol, pH 4.94, 20° C., t = 0) of the same compound?
Answer: Its aglycone is 0.59%.

Question: And the “% aglycone” value [1, 15]?
Answer: The value was 0.59%.

Question: And the “% bis-anhydro” value [1, 15]?
Answer: Its value is 0.09%.

Question: And the “% aglycone” value [1, 16]?
Answer: Its value is 0.59%.

Question: And the “% bis-anhydro” value [1, 16]?
Answer: Its value is 0.25%.

Question: What about the “% aglycone” value ([1]; NH4OAc 3% mol, pH 5.94, 4° C., t = 0) of the same compound?
Answer: The value was 0.59%.

Question: And the “% aglycone” value [1, 17]?
Answer: Its value is 0.59%.

Question: And the “% bis-anhydro” value [1, 17]?
Answer: The value was 0.50%.

Question: And the “% aglycone” value [1, 18]?
Answer: The value was 0.59%.

Question: And the “% bis-anhydro” value [1, 18]?
Answer: Its value is 1.39%.

Question: And the “% aglycone” value ([1]; NH4OAc 3% mol, pH 5.94, 20° C., t = 0)?
Answer: The value was 0.59%.

Question: And the “aglycone contained in lyophilized product” value (shortened to “aglycone contained”) ([2]; Example 38: acetic acid and ammonium acetate, both 1.5% molar)?
Answer: Its value is 0.12%.

Question: What about the “aglycone contained” value ([2]; Example 39: acetic acid and ammonium acetate, both 1.5% molar, charcoal, filtered) of the same compound?
Answer: Its value is 0.02%.

Question: And the “aglycone contained” value ([2]; Example 42: AMBERLITE IRA-67 acetate 1.0% molar and acetic acid 0.8% molar, slurried two hours, filtered)?
Answer: The value was 0.09%.
